Results on 38 compounds are retold here after patent US20260055117A1, “SUBSTITUTED PYRIDONE GPR84 ANTAGONISTS AND USES THEREOF” (Liminal BioSciences Limited, priority 2022, published 2026).

A value given as a limit tells only on which side of the number the result lay.

The target in this test is T1, human GPR84 receptor (Homo sapiens, UniProt Q9NQS5).
T1 construct: host or cells: HEK293, transiently transfected
The experiment in a line: Gαi biosensor BRET assay (GPR84 antagonism vs agonist ZQ-16). The test is classed as cell-based. Particulars: HEK293 cells, 200 nmol/L agonist ZQ-16; for inhibition at 10 µM: tested at 10 μM (concentration code D); for IC50: Gαi biosensor BRET assay; for inhibition at 2 µM: tested at 2 μM (concentration code A). An excerpt: Background—The following assays can be used for determination of GPR84 activation in living HEK293 cells. The Gai BRET biosensor (Gagnon et al., 2018; Gales et al., 2006. Nat Struct Mol Biol. 13, 778-86; Saulieres et al., 2012. Nat Chem Biol. 8, 622-30) allows to directly monitor GPR84-mediated activation of Gai. The Gai biosensor consists of a Rluc8-tagged Gai2 subunit, a GFP10-tagged Gy2 subunit, and an untagged GB1. Agonist stimulation and GPR84 activation triggers a physical separation between the RLuc8-Gai donor and the GFP10-Gy2 acceptor, resulting in a decrease in BRET signal whose amplitude is correlated to ligand efficacy (Gales et al., 2006). Moreover, signaling functions of GPCRs are tightly regulated by endocytosis, the targeting of receptors to endosomes and their sorting to lysosomes or recycling to the plasma membrane. The early endosomes (EEs) trafficking assay (Namkung et al., 2016. Nat Commun. 7, 12178) uses Rluc8-tagged GPR84 and Renilla GFP (rGFP) attached to the FYVE domain from human endofin/zinc finger FYVE domain-containing protein 16, which binds phosphatidylinositol 3-phosphate in EEs. Agonist stimulation of GPR84-Rluc8 leads to trafficking of the receptor to EEs, and ensuing increase of the donor concentration relative to the rGFP-FYVE acceptor anchored in the same cellular compartment, and thus results in an increase in BRET signal.
Plasmids—The cDNA clones for human GPR84 receptor, human Gai2, GB1, and Gy2 were obtained from the cDNA Resource Center (www.cdna.org). GFP10 (F64L, S147P, S202F and H231L variant of Aequorea victoria Green Fluorescent Protein) gBlocks gene fragments (Integrated DNA Technologies, IA) and linker were inserted in frame at the N-terminus of human Gy2. Rluc8 (A55T, C124A, S130A, K136R, A143M, M185V, M253L, and S287L variant of the Renilla reniformis luciferase) gBlocks gene fragment was inserted with linkers in frame in between residues 91 and 92 of Gai2 or at the C-terminus of GPR84. The FYVE domain from human endofin (residues Q739 to K806) attached in frame at the C terminus of a humanized Renilla GFP (rGFP), were synthesized as gBlocks gene fragments.
Bioluminescence Resonance Energy Transfer (BRET) Measurement-HEK293 cells were transfected with GPR84-Rluc8 and rGFP-FYVE for the EEs trafficking biosensor or with GPR84, Gai2-Rluc8, GFP10-Gy2, and GB1 for the Ga; biosensor. The following day, transiently transfected cells were seeded in 96-well white clear bottom microplates coated with poly-D-lysine and left in culture for 24 hours. Cells were washed once with Tyrode's buffer (140 mmol/L NaCl, 1 mmol/L CaCl2), 2.7 mmol/L KCl, 0.49 mmol/L MgCl2, 0.37 mmol/L NaH2PO4, 5.6 mmol/L glucose, 12 mmol/L NaHCO3, and 25 mmol/L HEPES, pH 7.5) before performing assays in Tyrode's buffer. Test compounds were incubated with cells for 5 (Gai) or 15 (EEs) minutes at 37° C. before addition of 200 nmol/L of the GPR84 agonist ZQ-16 (2-(Hexylthio)-6-hydroxy-4 (3H)-pyrimidinone) for 5 minutes at room temperature (Gai) or 30 minutes at 37° C. (EEs). The Rluc8 substrate coelenterazine 400A (Prolume, Lakeside, A Z) was added at a final concentration of 5 μmol/L and BRET readings were collected using an Infinite M1000 microplate reader (Tecan, Morrisville, N C). BRET2 readings between Rluc8 and GFP10 or rGFP were collected by sequential integration of the signals detected in the 370 to 450 nm (Rluc8) and 510 to 540 nm (GFP10, rGFP) windows. The BRET signal was calculated as the ratio of light emitted by acceptor (GFP10, rGFP) over the light emitted by donor (Rluc8). The values were corrected to net BRET by subtracting the background BRET signal obtained in cells transfected with Rluc8 constructs alone. Ligand-promoted net BRET values were calculated by subtracting vehicle-induced net BRET from ligand-induced net BRET.

T1 sequence (Q9NQS5 whole entry): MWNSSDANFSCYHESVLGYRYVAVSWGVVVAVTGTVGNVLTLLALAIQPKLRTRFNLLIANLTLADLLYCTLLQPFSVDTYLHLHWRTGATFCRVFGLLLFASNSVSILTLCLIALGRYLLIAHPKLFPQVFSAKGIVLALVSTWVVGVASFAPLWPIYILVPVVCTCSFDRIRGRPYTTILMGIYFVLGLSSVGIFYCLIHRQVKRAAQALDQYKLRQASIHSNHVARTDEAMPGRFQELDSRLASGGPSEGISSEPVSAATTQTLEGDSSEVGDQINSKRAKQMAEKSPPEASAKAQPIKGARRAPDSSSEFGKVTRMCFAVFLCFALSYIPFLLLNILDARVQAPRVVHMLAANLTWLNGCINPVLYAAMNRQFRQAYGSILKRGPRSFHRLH

For the compound `Cc1nc(OCC(=O)N2CCC[C@H]2C(=O)O)cc(=O)n1[C@H](C)c1ccc(C#CC2CC2)cc1` [Compound I-297], the inhibition at 10 µM is above 75%.

In the case of `Cc1cc(OCS(=O)(=O)N(C)C)cc(=O)n1[C@H](C)c1ccc(C#CC2CC2)cc1` [Compound I-41], the inhibition at 10 µM was 50 to 75%.

In the case of `Cc1cc(OCc2nnn[nH]2)cc(=O)n1[C@H](C)c1ccc(C#CC2CC2)cc1` [Compound I-259], the IC50 is at most 300 nM and the inhibition at 2 µM was above 75%.

Regarding `Cc1cc(OCC(=O)N(C)C)cc(=O)n1[C@H](C)c1ccc(C#CC2CC2)c(C2CC2)c1` [Compound I-33], the inhibition at 10 µM is above 75%.

As for `Cc1cc(OCC(=O)N2CC3CCC(C2)O3)cc(=O)n1[C@H](C)c1ccc(C#CC2CC2)cc1` [Compound I-325], the half-inhibitory concentration (IC50) was at most 300 nM and the inhibition at 2 µM was above 75%.

On to `Cc1cc(OCC(=O)N2CCN(C)CC2)cc(=O)n1[C@H](C)c1ccc(C#CC2CC2)cc1` [Compound I-60], for which the IC50 was at most 300 nM and the inhibition at 10 µM was above 75%.

In turn, `COC(COc1cc(C)n([C@H](C)c2ccc(C#CC3CC3)cc2)c(=O)c1)C(C)(C)C` (some centres unmarked) [Compound I-277] displayed an IC50 above 3000 nM and an inhibition at 10 µM above 75%.

In the case of `Cc1cc(OCC(=O)N2CC[C@@H](S(=O)(=O)N(C)C)C2)cc(=O)n1[C@H](C)c1ccc(C#CC2CC2)cc1` [Compound I-334], the IC50 is 300 to 1000 nM and the inhibition at 2 µM was above 75%.

`[2H]C1(C#Cc2ccc([C@@H](C)n3c(C)cc(OCC(=O)N(C)C)cc3=O)cc2)CC1` [Compound I-73]: the IC50 was at most 300 nM and the inhibition at 2 µM was above 75%.

Consider `Cc1cc(OCC(=O)C(C)(C)C)cc(=O)n1[C@H](C)c1ccc(C#CC2CC2)cc1` [Compound I-272], for which the concentration for half-maximal inhibition (IC50) was 300 to 1000 nM and the inhibition at 2 µM was above 75%.

`C[C@H](c1ccc(C#CC2CC2)cc1)n1c(CO)cc(OCC(=O)N(C)C)cc1=O` [Compound I-287] displayed an inhibition at 10 µM above 75%.

`Cc1cc(OCc2ncccn2)cc(=O)n1[C@H](C)c1ccc(C#CC2CC2(F)F)cc1` (some centres unmarked) [Compound I-62] returned an inhibition at 10 µM of 50 to 75%.

For the compound `Cc1cc(OCC(=O)N2CC[C@H](C(=O)O)C2)cc(=O)n1[C@H](C)c1ccc(C#CC2CC2)cc1` [Compound I-251], the IC50 is at most 300 nM and the inhibition at 2 µM was above 75%.

`Cc1cc(OCC(=O)N2CC3CCC2CO3)cc(=O)n1[C@H](C)c1ccc(C#CC2CC2)cc1` (some centres unmarked) [Compound I-327] registered an IC50 of 1000 to 3000 nM and an inhibition at 2 µM above 75%.

In turn, `Cc1nc(OCC(=O)N2CCC[C@@H]2C(=O)O)cc(=O)n1[C@H](C)c1ccc(C#CC2CC2)cc1` [Compound I-296] registered an inhibition at 10 µM of 50 to 75%.

Compound `Cc1cc(OCC(=O)N(C)C)cc(=O)n1[C@H](C)c1ccc(C#CC2CC2)c(O)c1` [Compound I-72] gave an IC50 of 300 to 1000 nM and an inhibition at 10 µM above 75%.

`Cc1cc(OCC(=O)N2CC(F)(F)C2)cc(=O)n1[C@H](C)c1ccc(C#CC2CC2)cc1` [Compound I-7] registered a 50% inhibitory concentration (IC50) of 300 to 1000 nM and an inhibition at 10 µM above 75%.

In turn, `Cc1cc(OCc2ncn[nH]2)cc(=O)n1[C@H](C)c1ccc(C#CC2CC2)cc1` [Compound I-328] gave an inhibition at 10 µM above 75%.

With `CC#CC#Cc1ccc([C@@H](C)n2c(C)cc(OCc3ncccn3)cc2=O)cc1` [Compound I-74], the inhibition at 10 µM lay within 25 to 50%.

Regarding `CCC#Cc1ccc([C@@H](C)n2c(C)cc(OCC(=O)N(C)C)cc2=O)cc1` [Compound I-28], the IC50 is at most 300 nM and the inhibition at 10 µM is above 75%.

`Cc1cc(OCC(=O)N2CCC(=O)C2)cc(=O)n1[C@H](C)c1ccc(C#CC2CC2)cc1` [Compound I-245] had an IC50 of at most 300 nM and an inhibition at 2 µM above 75%.

Compound `Cc1nc(OCC(=O)N2CC[C@@H](C(=O)O)C2)cc(=O)n1[C@H](C)c1ccc(C#CC2CC2)cc1` [Compound I-298] returned an inhibition at 10 µM above 75%.

In the case of `Cc1cc(OCC(=O)N2CCCC2)cc(=O)n1[C@H](C)c1ccc(C#CC2(C)CC2)cc1` [Compound I-88], the half-inhibitory concentration (IC50) lay in the range of 300 to 1000 nM and the inhibition at 10 µM is above 75%.

`Cc1cc(OCC(=O)N2CC[C@H](O)C2)cc(=O)n1[C@H](C)c1ccc(C#CC2CC2)cc1` [Compound I-242]: the 50% inhibitory concentration (IC50) was at most 300 nM and the inhibition at 2 µM is above 75%.

The compound `Cc1cc(OCC(=O)N(C)C)cc(=O)n1[C@H](C)c1ccc(-c2nnn[nH]2)cc1` [Compound I-266] gave an inhibition at 10 µM below 25%.

For `Cc1cc(OCC(=O)NCCN2CCCC2)cc(=O)n1[C@H](C)c1ccc(C#CC2CC2)cc1` [Compound I-346], the inhibition at 10 µM lay in the range of 25 to 50%.

On to `Cc1cc(OCC(=O)NC2CC2)cc(=O)n1[C@H](C)c1ccc(C#CC2CC2)cc1` [Compound I-50], for which the half-maximal inhibitory concentration (IC50) lay in the range of 300 to 1000 nM and the inhibition at 10 µM was above 75%.

Compound `Cc1cc(OCC(=O)N(C)C)cc(=O)n1C(C)c1ccnc(O)c1` (centres unmarked) [Compound I-231] gave an inhibition at 10 µM below 25%.

`Cc1cc(OCC(=O)N2C[C@@H](O)[C@H](O)C2)cc(=O)n1[C@H](C)c1ccc(C#CC2CC2)cc1` [Compound I-315] displayed an IC50 of at most 300 nM and an inhibition at 10 µM above 75%.

With `Cc1cc(OCC2COCCO2)cc(=O)n1[C@H](C)c1ccc(NC(=O)c2cnccn2)c(F)c1` (stereo partly drawn) [Compound I-9, N-(4-((1R)-1-(4-((1,4-dioxan-2-yl)methoxy)-6-methyl-2-oxopyridin-1 (2H)-yl)ethyl)-2-fluorophenyl) pyrazine-2-carboxamide], the inhibition at 10 µM was below 25%.

On to `Cc1cc(OCc2ncccn2)cc(=O)n1[C@H](C)c1ccc(C#CC#CC2CC2)cc1` [Compound I-75], for which the inhibition at 10 µM was below 25%.

As to `Cc1cc(OCC(=O)N2CC[C@H](S(=O)(=O)N(C)C)C2)cc(=O)n1[C@H](C)c1ccc(C#CC2CC2)cc1` [Compound I-333], the IC50 is 1000 to 3000 nM and the inhibition at 10 µM is above 75%.

Turning to `COc1cncnc1COc1cc(C)n([C@H](C)c2ccc(C#CC3CC3)cc2)c(=O)c1` [Compound I-4], the inhibition at 10 µM was above 75%.

Regarding `COCC1CN(C(=O)COc2cc(C)n([C@H](C)c3ccc(C#CC4CC4)cc3)c(=O)c2)C1` [Compound I-292], the IC50 is at most 300 nM and the inhibition at 2 µM is above 75%.

Consider `Cc1cc(OCC(=O)N2CCC[C@@H]2C2CC2)cc(=O)n1[C@H](C)c1ccc(C#CC2CC2)cc1` [Compound I-307], for which the IC50 is at most 300 nM and the inhibition at 2 µM was above 75%.

The compound `Cc1cc(OCC(=O)N(C)C2CNC2)cc(=O)n1[C@H](C)c1ccc(C#CC2CC2)cc1` [Compound I-78] came in with an inhibition at 10 µM above 75%.

`Cc1cc(OCC(=O)N2C[C@H](O)[C@@H](O)C2)cc(=O)n1[C@H](C)c1ccc(C#CC2CC2)cc1` [Compound I-314] yielded a half-inhibitory concentration (IC50) of at most 300 nM and an inhibition at 2 µM above 75%.

Consider `Cc1cc(OCS(=O)(=O)N(C)C)cc(=O)n1[C@H](C)c1ccc(C#CC2CC2)c(F)c1` [Compound I-37, (R)-1-(1-(1-(4-(cyclopropylethynyl)-3-fluorophenyl)ethyl)-6-methyl-2-oxo-1,2-dihydropyridin-4-yloxy)-N,N-dimethylmethanesulfonamide], for which the inhibition at 10 µM was in the range of 50 to 75%.
